Test results published in article PMC6816246, “A Novel Substrate Radiotracer for Molecular Imaging of SIRT2 Expression and Activity with Positron Emission Tomography” (Molecular imaging and biology, 2018).

Target: T1, SIRT2 (Homo sapiens, UniProt Q8IXJ6)
T1 sequence (Q8IXJ6 2-389): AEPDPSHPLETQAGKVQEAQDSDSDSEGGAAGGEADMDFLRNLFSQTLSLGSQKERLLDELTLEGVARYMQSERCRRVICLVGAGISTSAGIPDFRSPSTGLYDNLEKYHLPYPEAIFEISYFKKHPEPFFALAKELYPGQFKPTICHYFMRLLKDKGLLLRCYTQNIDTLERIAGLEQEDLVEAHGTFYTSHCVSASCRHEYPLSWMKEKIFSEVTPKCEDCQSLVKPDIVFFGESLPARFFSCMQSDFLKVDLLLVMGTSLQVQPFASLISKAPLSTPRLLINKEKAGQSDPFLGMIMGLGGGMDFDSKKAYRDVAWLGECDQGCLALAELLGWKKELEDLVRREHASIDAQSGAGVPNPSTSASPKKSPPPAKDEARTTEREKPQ
Assay: fluorogenic enzyme kinetics with recombinant SIRT2 (Km)
Format: biochemical

Substance | Km [µM]
Boc-Lys(3-F-propanoyl)-AMC [compound 1] | 55.5
Boc-Lys(6-F-hexanoyl)-AMC [compound 2] | 44.9
Boc-Lys(10-F-decanoyl)-AMC [compound 3] | 18

Now from value to substance:

Km [µM] | Substance
8.07 | Boc-Lys(12-F-dodecanoyl)-AMC [compound 4]
2.36 | Boc-Lys(myristoyl)-AMC [compound 5]
